The test system of test [1] is human hepatocarcinoma cell line ATCC HB-8065 (HepG2). The experiment in a line: Human cell viability (CellTiter-Glo). Format: cell-based. The conditions noted are these: Homo sapiens; HepG2 cells, 24 h incubation, CellTiter-Glo luminescence, 0.2-100 μM; read-out: IC50 values against the HepG2 cell line. A digest of the protocol: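 Cytotoxicity was read as CellTiter-Glo luminescence after 24 h compound exposure at 37° C., 5% CO2. Final concentrations spanned 0.2-100 μM in two-fold steps, in 1% FBS MEM with 1% DMSO, on cells plated a day earlier at 20,000/well. IC50 came from 4-parameter logistic regression.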
In general terms: Cellular ATP, detected with luciferase, serves as a proxy for viable cell number.

Test [2] deals with Staphylococcus aureus ATCC 35556 (SA). The experiment in a line: MIC broth microdilution. The class given is cell-based. To be noted: ATCC35556. The essentials: (§1)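 Planktonic cells were tested by CLSI broth microdilution in cation-adjusted Müller-Hinton broth, with compounds two-fold serially diluted to final concentrations of 0.39-200 μM (DMSO at most 2% final). After 20-24 h at 37° C in ambient air, MIC was taken as the lowest concentration inhibiting growth.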

The subject of test [3] is Klebsiella pneumoniae ATCC 10031 (KP2). The experiment in a line: MIC broth microdilution. To be noted: ATCC10031. Format: cell-based. The essentials:
(§2)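 Growth inhibition scored after 20-24 h at 37 °C in ambient air, in cation-adjusted Müller-Hinton broth; MIC is the lowest inhibitory concentration. Compounds serially diluted two-fold over 0.39-200 μM final (DMSO up to 2%), per CLSI microdilution guidelines.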
In general terms: Broth dilution looks for growth in wells or tubes with falling amounts of substance.

Test [4] concerns Pseudomonas aeruginosa ATCC 33359 (PA). Nature of the test: MIC broth microdilution. The class given is cell-based. The conditions noted are these: ATCC33359. The essentials:
as §1

For test [5], the system named is Klebsiella pneumoniae ATCC 51504 (KP4). The experiment in a line: MIC broth microdilution. The class given is cell-based. To be noted: ATCC51504. The essentials:
as §1

Test [6] deals with Acinetobacter baumannii ATCC 17978 (AB). Nature of the test: MIC broth microdilution. To be noted: ATCC17978. Format: cell-based. The essentials:
as §1

Test [7] concerns Escherichia coli K12 (EC). The experiment in a line: MIC broth microdilution. Format: cell-based. A digest of the protocol: as §1
Test [8] deals with K. pneumoniae H154600588 (KP8). The experiment in a line: MIC broth microdilution. The class given is cell-based, Klebsiella pneumoniae. To be noted: Klebsiella pneumoniae. A digest of the protocol: as §2
In test [9] the test system is K. pneumoniae H154300688 (KP9). The experiment in a line: MIC broth microdilution. Format: cell-based, Klebsiella pneumoniae. The conditions noted are these: Klebsiella pneumoniae. A digest of the protocol:
as §2

In test [10] the test system is K. pneumoniae H154640784 (KP7). The experiment in a line: MIC broth microdilution. Format: cell-based, Klebsiella pneumoniae. The conditions noted are these: Klebsiella pneumoniae. The essentials: as §2
The test system of test [11] is K. pneumoniae ATCC 700603 (KP3). The experiment in a line: MIC broth microdilution. The conditions noted are these: Klebsiella pneumoniae, ATCC700603. Format: cell-based, Klebsiella pneumoniae. A digest of the protocol: as §2
Test [12] has as its system K. pneumoniae NCTC 13438 (KP1). Nature of the test: MIC broth microdilution. Format: cell-based, Klebsiella pneumoniae. To be noted: Klebsiella pneumoniae, NCTC13438. The essentials:
as §2

For test [13], the system named is K. pneumoniae H154020667 (KP6). The experiment in a line: MIC broth microdilution. The conditions noted are these: Klebsiella pneumoniae. The class given is cell-based, Klebsiella pneumoniae. A digest of the protocol:
as §2

Test [14] relates to K. pneumoniae H151440671 (KP10). The experiment in a line: MIC broth microdilution. The class given is cell-based, Klebsiella pneumoniae. The conditions noted are these: Klebsiella pneumoniae. The essentials:
as §2

Test [15] relates to K. pneumoniae H154680676 (KP5). The experiment in a line: MIC broth microdilution. The class given is cell-based, Klebsiella pneumoniae. To be noted: Klebsiella pneumoniae. The essentials:
as §2

Test [16] has as its system E. coli NCTC 13441 (UPEC). Nature of the test: MIC broth microdilution. The class given is cell-based, Escherichia coli. The conditions noted are these: Escherichia coli, NCTC13441. The essentials: as §1

Values after ≈ are worked out from the molar mass of the structure shown. Where only a bound is given, the exact number is not on record here.

For orientation: IC50 means the concentration that gives 50% inhibition. What is called MIC is the least concentration at which growth counts as inhibited. A lower MIC goes with greater potency.

For `Cc1cc(-c2[nH]c(N)nc2-c2cc(F)c3c(c2)OCCO3)ccn1` [Example 56, 4-(8-fluoro-2,3-dihydrobenzo[b][1,4]dioxin-6-yl)-5-(2-methylpyridin-4-yl)-1H-imidazol-2-amine], the IC50 in test [1] was greater than 100 µM. In addition, the minimal inhibitory concentration (MIC) in [2] is greater than 100 µM; in [3], no more than 1 µM; in test [4], greater than 100 µM; in test [5] it was no more than 1 µM; in [6] it was greater than 100 µM; in [7], 1 to 10 µM (≈ 0.326 to 3.26 µg/mL). In addition, the minimal inhibitory concentration (MIC) is 1 to 10 µM (≈ 0.326 to 3.26 µg/mL) in test [8]; 1 to 10 µM (≈ 0.326 to 3.26 µg/mL) in [9]; 1 to 10 µM (≈ 0.326 to 3.26 µg/mL) in test [10]; 1 to 10 µM (≈ 0.326 to 3.26 µg/mL) in test [11]; 1 to 10 µM (≈ 0.326 to 3.26 µg/mL) in test [12]; no more than 1 µM in test [13]. For the same molecule, the minimum inhibitory concentration (MIC) in [14] is no more than 1 µM; in test [15] it was no more than 1 µM; in [16] it was 1 to 10 µM (≈ 0.326 to 3.26 µg/mL).

Consider `CCN1CCOc2ccc(-c3nc(N)[nH]c3-c3ccnc(C)c3)cc21` [Example 57, 4-(4-Ethyl-3,4-dihydro-2H-benzo[b][1,4]oxazin-6-yl)-5-(2-methylpyridin-4-yl)-1H-imidazol-2-amine], for which the IC50 in test [1] is greater than 100 µM. In addition, the MIC is greater than 100 µM in [2]; no more than 1 µM in test [3]; greater than 100 µM in test [4]; no more than 1 µM in test [5]; greater than 100 µM in test [6]; no more than 1 µM in test [7]. Also, the minimal inhibitory concentration (MIC) in test [8] was 1 to 10 µM (≈ 0.335 to 3.35 µg/mL); in test [9], 1 to 10 µM (≈ 0.335 to 3.35 µg/mL); in test [10], 1 to 10 µM (≈ 0.335 to 3.35 µg/mL); in test [11] it was 1 to 10 µM (≈ 0.335 to 3.35 µg/mL); in [12], 1 to 10 µM (≈ 0.335 to 3.35 µg/mL); in test [13], no more than 1 µM. Besides, the MIC in [14] is no more than 1 µM; in test [15], no more than 1 µM; in [16], 1 to 10 µM (≈ 0.335 to 3.35 µg/mL).

For the molecule `Cc1cc(-c2[nH]c(N)nc2-c2ccc3c(c2)NCCC3)ccn1` [Example 58, 5-(2-Methylpyridin-4-yl)-4-(1,2,3,4-tetrahydroquinolin-7-yl)-1H-imidazol-2-amine], in test [1], the 50% inhibitory concentration (IC50) was greater than 100 µM. Further, the MIC was greater than 100 µM in test [2]; no more than 1 µM in test [3]; greater than 100 µM in test [4]; 1 to 10 µM (≈ 0.305 to 3.05 µg/mL) in test [5]; greater than 100 µM in test [6]; 1 to 10 µM (≈ 0.305 to 3.05 µg/mL) in test [7]. Further, the minimum inhibitory concentration (MIC) in [8] fell in the range of 10 to 100 µM (≈ 3.05 to 30.5 µg/mL); in test [9], 1 to 10 µM (≈ 0.305 to 3.05 µg/mL); in [10], 10 to 100 µM (≈ 3.05 to 30.5 µg/mL); in [11], 10 to 100 µM (≈ 3.05 to 30.5 µg/mL); in test [12], 10 to 100 µM (≈ 3.05 to 30.5 µg/mL); in test [13], 1 to 10 µM (≈ 0.305 to 3.05 µg/mL). For the same molecule, the MIC was 1 to 10 µM (≈ 0.305 to 3.05 µg/mL) in test [14], 1 to 10 µM (≈ 0.305 to 3.05 µg/mL) in [15] and no more than 1 µM in test [16].

As for `Cc1cc(-c2[nH]c(N)nc2-c2ccc3c(c2)N(C(=O)CN)CCO3)ccn1` [Example 62, 2-Amino-1-(6-(2-amino-5-(2-methylpyridin-4-yl)-1H-imidazol-4-yl)-2,3-dihydro-4H-benzo[b][1,4]oxazin-4-yl)ethan-1-one], the IC50 in test [1] was greater than 100 µM. The MIC in test [2] was greater than 100 µM; in [3], no more than 1 µM; in test [4] it was greater than 100 µM; in test [5] it was 1 to 10 µM (≈ 0.364 to 3.64 µg/mL); in test [6], greater than 100 µM; in test [7], 1 to 10 µM (≈ 0.364 to 3.64 µg/mL). The MIC in test [8] fell in the range of 10 to 100 µM (≈ 3.64 to 36.4 µg/mL); in test [9], 1 to 10 µM (≈ 0.364 to 3.64 µg/mL); in test [10], 1 to 10 µM (≈ 0.364 to 3.64 µg/mL); in [11] it was 1 to 10 µM (≈ 0.364 to 3.64 µg/mL); in test [12] it was 1 to 10 µM (≈ 0.364 to 3.64 µg/mL); in [13], 1 to 10 µM (≈ 0.364 to 3.64 µg/mL). The minimum inhibitory concentration (MIC) in test [14] is 1 to 10 µM (≈ 0.364 to 3.64 µg/mL); in [15], 1 to 10 µM (≈ 0.364 to 3.64 µg/mL); in test [16], no more than 1 µM.

The values above are taken from US11345694B2, “Antibacterial compounds” (DISCUVA LTD., priority 2017, dated 2022).
